Source: the NIST ThermoML archive (doi:10.1016/j.jct.2012.03.034)

Experiment: xn = mol fraction of the nth substance listed
Conditions: 101 kPa, Liquid; for speed of sound: Linear variable-path acoustic interferometer; for mass density: Vibrating tube method; for viscosity: dual vibrating plate viscometer, AandD Co. Ltd Model SV-10

CC[NH2+]CC.O=S(=O)([O-])O [diethylammonium hydrogen sulfate] + CN1CCCC1=O
Conditions	mass density [kg/m3]	speed of sound [m/s]	viscosity [mPa·s]
298.15 K, x1 = 0.016	1050.6	1559	2.45
298.15 K, x1 = 0.0347	1067.85	1555	3.33
298.15 K, x1 = 0.092	1113.77	1539	9.94
298.15 K, x1 = 0.1316	1140.71	1534	15.78
298.15 K, x1 = 0.1916	1176.12	1529	27.2
298.15 K, x1 = 0.2992	1222.46	1518	49.04
298.15 K, x1 = 0.3455	1237.11	1513	59.35
298.15 K, x1 = 0.4175	1253.31	1508	73.04
298.15 K, x1 = 0.5442	1269.42	1495	92.75
298.15 K, x1 = 0.6829	1275.63	1481	101.4
298.15 K, x1 = 0.8359	1277.72	1458	87.14
298.15 K, x1 = 0.9342	1282.39	1440	58.7
298.15 K, x1 = 0.9684	1281.99	1434	46.45
298.15 K, x1 = 1	1283.95	1432	34.1
303.15 K, x1 = 0.016	1037.47	1551	–
303.15 K, x1 = 0.0347	1054.26	1547	0.95
303.15 K, x1 = 0.092	1095.4	1536	7.28
303.15 K, x1 = 0.1316	1122.07	1529	12.27
303.15 K, x1 = 0.1916	1155.56	1523	21.6
303.15 K, x1 = 0.2992	1196	1515	37.85
303.15 K, x1 = 0.3455	1207.13	1510	45.88
303.15 K, x1 = 0.4175	1219.69	1505	56.62
303.15 K, x1 = 0.5442	1228.51	1491	72.49
303.15 K, x1 = 0.6829	1229.8	1474	79.75
303.15 K, x1 = 0.8359	1232.02	1446	69.13
303.15 K, x1 = 0.9342	1235.49	1423	48.37
303.15 K, x1 = 0.9684	1237.36	1415	35.95
303.15 K, x1 = 1	1239.74	1408	28.9
308.15 K, x1 = 0.016	1030.03	1533	–
308.15 K, x1 = 0.0347	1043.78	1530	0.67
308.15 K, x1 = 0.092	1080.92	1521	4.42
308.15 K, x1 = 0.1316	1103.13	1518	9.53
308.15 K, x1 = 0.1916	1133.63	1511	17.3
308.15 K, x1 = 0.2992	1169.38	1503	30.7
308.15 K, x1 = 0.3455	1179.79	1500	36.84
308.15 K, x1 = 0.4175	1190.23	1496	45.89
308.15 K, x1 = 0.5442	1198.01	1485	57.51
308.15 K, x1 = 0.6829	1198.27	1468	63.11
308.15 K, x1 = 0.8359	1198.28	1437	55.29
308.15 K, x1 = 0.9342	1200.49	1414	37.86
308.15 K, x1 = 0.9684	1202.65	1404	27.69
308.15 K, x1 = 1	1205.43	1392	24.6
313.15 K, x1 = 0.016	1020.1	1529	–
313.15 K, x1 = 0.0346	1031.41	1529	0.48
313.15 K, x1 = 0.092	1060.41	1521	2.06
313.15 K, x1 = 0.1316	1079.57	1516	5.97
313.15 K, x1 = 0.1916	1100.33	1511	13.15
313.15 K, x1 = 0.2992	1123.81	1502	24.74
313.15 K, x1 = 0.3455	1129.72	1498	30.42
313.15 K, x1 = 0.4175	1134.34	1491	36.87
313.15 K, x1 = 0.5442	1134.82	1474	46.82
313.15 K, x1 = 0.6829	1128.95	1450	52.39
313.15 K, x1 = 0.8359	1123.69	1411	46.21
313.15 K, x1 = 0.9342	1123.28	1382	30.9
313.15 K, x1 = 0.9684	1124.6	1370	23.03
313.15 K, x1 = 1	1126.81	1356	21.9
